From patent publication US20130109682A1, “CYCLIC ETHER COMPOUNDS USEFUL AS KINASE INHIBITORS” (NOVARTIS AG, priority 2010, published 2013) come the findings set out here.

As usually defined, the IC50 is the concentration that gives 50% inhibition. For orientation: EC50 means the concentration giving half of the maximal effect. Low values mean greater potency, high ones weaker potency.

Structures are written as SMILES. A value given as a limit tells only on which side of the number the result lay.

The target in assay [1] is PIM1 (Homo sapiens, UniProt P11309). In words: KinaseGlo Pim1 ATP depletion assay. It is filed as biochemical. The method, then:
KinaseGlo Pim1 ATP Depletion Assay
The activity of PIM1 is measured using a luciferase-luciferin based ATP detection reagent to quantify ATP depletion resulting from kinase-catalyzed phosphoryl transfer to a peptide substrate. Compounds to be tested are dissolved in 100% DMSO and directly distributed into white 384-well plates at 0.5 μA per well. To start the reaction, 10 μA of 5 nM Pim1 kinase and 80 μM BAD peptide (RSRHSSYPAGT-OH) in assay buffer (50 mM HEPES pH 7.5, 5 mM MgCl2, 1 mM DTT, 0.05% BSA) is added into each well. After 15 minutes, 10 μl of 40 μM ATP in assay buffer is added. Final assay concentrations are 2.5 nM PIM1, 20 μM ATP, 40 μM BAD peptide and 2.5% DMSO. The reaction is performed until approximately 50% of the ATP is depleted, then stopped with the addition of 20 μA KinaseGlo Plus (Promega Corporation) solution. The stopped reaction is incubated for 10 minutes and the remaining ATP detected via luminescence on the Victor2 (Perkin Elmer). […] IC50, the half maximal inhibitory concentration, represents the concentration of a test compound that is required for 50% inhibition of its target in vitro.
(In Kinase-Glo more light means more ATP remaining.)

For assay [2], the target named is PIM2 (Homo sapiens, UniProt Q9P1W9). In words: KinaseGlo Pim2 ATP depletion assay. It counts as biochemical. On the procedure:
KinaseGlo Pim2 ATP Depletion Assay
The activity of PIM2 is measured using a luciferase-luciferin based ATP detection reagent to quantify ATP depletion resulting from kinase-catalyzed phosphoryl transfer to a peptide substrate. Compounds to be tested are dissolved in 100% DMSO and directly distributed into white 384-well plates at 0.5 piper well. To start the reaction, 10 μl of 10 nM Pim2 kinase and 20 μM BAD peptide (RSRHSSYPAGT-OH) in assay buffer (50 mM HEPES pH 7.5, 5 mM MgCl2, 1 mM DTT, 0.05% BSA) is added into each well. After 15 minutes, 10 μl of 8 μM ATP in assay buffer is added. Final assay concentrations are 5 nM PIM2, 4 μM ATP, 10 μM BAD peptide and 2.5% DMSO. The reaction is performed until approximately 50% of the ATP is depleted, then stopped with the addition of 20 μl KinaseGlo Plus (Promega Corporation) solution. The stopped reaction is incubated for 10 minutes and the remaining ATP detected via luminescence on the Victor2 (Perkin Elmer).

Assay [3] addresses PIM3 (Homo sapiens, UniProt Q86V86). As to the kind of experiment: KinaseGlo Pim3 ATP depletion assay. It counts as biochemical. On the procedure: KinaseGlo Pim3 ATP Depletion Assay
The activity of PIM3 is measured using a luciferase-luciferin based ATP detection reagent to quantify ATP depletion resulting from kinase-catalyzed phosphoryl transfer to a peptide substrate. Compounds to be tested are dissolved in 100% DMSO and directly distributed into white 384-well plates at 0.5 μl per well. To start the reaction, 10 μl of 10 nM Pim3 kinase and 200 μM BAD peptide (RSRHSSYPAGT-OH) in assay buffer (50 mM HEPES pH 7.5, 5 mM MgCl2, 1 mM DTT, 0.05% BSA) is added into each well. After 15 minutes, 10 μl of 80 μM ATP in assay buffer is added. Final assay concentrations are 5 nM […], 40 μM ATP, 100 μM BAD peptide and 2.5% DMSO. The reaction is performed until approximately 50% of the ATP is depleted, then stopped by the addition of 20 μl KinaseGlo Plus (Promega Corporation) solution. The stopped reaction is incubated for 10 minutes and the remaining ATP detected via luminescence on the Victor2 (Perkin Elmer).

Assay [4] has as its target GSK3β (Homo sapiens, UniProt P49841). In words: GSK3β ATP depletion assay. It is filed as biochemical. The conditions noted are these: read-out: GSK3b IC50. The method, then:
GSK3β ATP Depletion Assay
The activity of GSK3β is measured using a luciferase-luciferin based ATP detection reagent to quantify ATP depletion resulting from kinase-catalyzed phosphoryl transfer to a peptide substrate. Compounds to be tested are dissolved in 100% DMSO and directly distributed into white 384-well plates at 0.5 μl per well. To start the reaction, 10 μl of 10 nM GSK3B kinase and 20 μM biotinylated CREB peptide ([…](pS)YR-NH2) in assay buffer (50 mM TRIS pH 7.5, 15 mM MgCl2, 1 mM DTT, 0.1% BSA) is added into each well. After 15 minutes, 10 μl of 2 μM ATP in assay buffer is added. Final assay concentrations are 5 nM GSK3B, […], 10 μM b-CREB peptide and 2.5% DMSO. The reaction is performed until approximately 50% of the ATP is depleted, then stopped with the addition of 20 μl KinaseGlo (Promega Corporation) solution. The stopped reaction is incubated for 10 minutes and the remaining ATP is detected via luminescence on the Victor2 (Perkin Elmer).

The subject of assay [5] is KMS11 (human myeloma cell line). As to the kind of experiment: Cell proliferation assay (CellTiter-Glo), KMS11. It is filed as cell-based. The conditions noted are these: Homo sapiens, KMS-11; KMS11-Luc cells. The method, then:
KMS11 (human myeloma cell line), were cultured in IMDM supplemented with 10% FBS, sodium pyruvate and antibiotics. Cells were plated in the same medium at a density of 2000 cells per well into 96 well tissue culture plates, with outside wells vacant, on the day of assay. MMl.s (human myeloma cell line), were cultured in RPMI1640 supplemented with 10% FBS, sodium pyruvate and antibiotics. Cells were plated in the same medium at a density of 5000 cells per well into 96 well tissue culture plates, with outside wells vacant, on the day of assay.
Test compounds supplied in DMSO were diluted into DMSO at 500 times the desired final concentrations before dilution into culture media to 2 times final concentrations. Equal volumes of 2× compounds were added to the cells in 96 well plates and incubated at 37° C. for 3 days.
After 3 days plates were equilibrated to room temperature and equal volume of CellTiter-Glow Reagent (Promega) was added to the culture wells. The plates were agitated briefly and luminescent signal was measured with luminometer.
Using the procedures of Cell Proliferation Assay, the EC50 concentration of indicated compounds of the examples in were determined in KMS11 cells as shown in Table 4.
In general terms: In ATP-based viability assays light output follows the ATP content of the culture.

PIM2, sequence (Q9P1W9 whole entry): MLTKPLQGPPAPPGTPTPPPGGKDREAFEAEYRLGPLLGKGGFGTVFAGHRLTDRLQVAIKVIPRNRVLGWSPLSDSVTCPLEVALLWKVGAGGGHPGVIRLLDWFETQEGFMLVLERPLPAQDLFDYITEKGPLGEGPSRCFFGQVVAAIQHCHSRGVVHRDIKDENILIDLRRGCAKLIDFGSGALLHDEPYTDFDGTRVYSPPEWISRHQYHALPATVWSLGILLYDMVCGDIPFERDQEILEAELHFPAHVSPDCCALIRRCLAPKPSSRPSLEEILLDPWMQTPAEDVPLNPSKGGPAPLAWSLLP
GSK3β, sequence (P49841 whole entry, species assumed): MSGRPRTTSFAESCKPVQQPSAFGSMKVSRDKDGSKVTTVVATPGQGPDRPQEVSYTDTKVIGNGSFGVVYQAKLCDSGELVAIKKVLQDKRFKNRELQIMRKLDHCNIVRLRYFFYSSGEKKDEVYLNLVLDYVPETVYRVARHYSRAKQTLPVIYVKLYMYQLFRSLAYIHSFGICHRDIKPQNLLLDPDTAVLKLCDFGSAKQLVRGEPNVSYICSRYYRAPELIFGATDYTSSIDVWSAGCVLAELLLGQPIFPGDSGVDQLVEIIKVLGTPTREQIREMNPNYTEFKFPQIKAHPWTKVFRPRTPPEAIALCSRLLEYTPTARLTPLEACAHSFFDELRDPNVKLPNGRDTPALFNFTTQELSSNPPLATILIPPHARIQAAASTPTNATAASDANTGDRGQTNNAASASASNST
PIM1, sequence (P11309 whole entry): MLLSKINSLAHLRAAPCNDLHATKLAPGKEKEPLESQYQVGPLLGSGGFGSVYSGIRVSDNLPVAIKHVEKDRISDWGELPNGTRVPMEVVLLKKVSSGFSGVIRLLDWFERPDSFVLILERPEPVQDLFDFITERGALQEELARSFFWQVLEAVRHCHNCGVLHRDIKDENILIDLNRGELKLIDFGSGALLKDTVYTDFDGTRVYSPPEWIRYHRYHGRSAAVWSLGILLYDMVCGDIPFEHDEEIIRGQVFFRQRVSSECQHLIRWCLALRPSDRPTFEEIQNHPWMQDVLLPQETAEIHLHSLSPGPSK

As for `CC[C@H]1O[C@@H](c2ccncc2NC(=O)c2nc(-c3c(F)cccc3F)sc2N)C[C@@H](O)[C@@H]1O` [Example 40, 5-amino-2-(2,6-difluorophenyl)-N-(4-((2R,4R,5S,6R)-6-ethyl-4,5-dihydroxytetrahydro-2H-pyran-2-yl)pyridin-3-yl)thiazole-4-carboxamide], the IC50 stood at 1 nM in assay [1], 2 nM in assay [2], 2 nM in assay [3] and 2 nM in assay [4]. This compound also returned an EC50 in assay [5] of 600 nM.
In the case of `C=C1[C@H](O)C[C@H](c2ccncc2NC(=O)c2ccc(F)c(-c3c(F)cccc3F)n2)OC12CC2` [Example 9, 6-(2,6-difluorophenyl)-5-fluoro-N-(4-((5R,7R)-7-hydroxy-8-methylene-4-oxaspiro[2.5]octan-5-yl)pyridin-3-yl)picolinamide], the IC50 is 4.9 nM in assay [1], 154 nM in assay [2], 25 nM in assay [3] and 453 nM in assay [4]. In addition, the half-maximal effective concentration (EC50) in assay [5] was above 10000 nM.
The matching figures for `C[C@@H]1C[C@H](O)C[C@H](c2ccncc2NC(=O)c2csc(-c3c(F)cccc3F)n2)O1` (stereo in doubt) [Example 125, 2-(2,6-difluorophenyl)-N-(4-((2R,4S,6R)-4-hydroxy-6-methyltetrahydro-2H-pyran-2-yl)pyridin-3-yl)thiazole-4-carboxamide]: 10 nM, 2320 nM, 165 nM, 104 nM and above 10000 nM.
The matching figures for `C=C[C@H]1OC(c2ccncc2NC(=O)c2ccnc(-c3c(F)cccc3F)n2)=C[C@@H](O)[C@@H]1O` [Example 23, 2-(2,6-difluorophenyl)-N-(4-((2R,3S,4R)-3,4-dihydroxy-2-vinyl-3,4-dihydro-2H-pyran-6-yl)pyridin-3-yl)pyrimidine-4-carboxamide]: 6 nM, 41 nM, 8 nM, 200 nM and above 10000 nM.
Take `CC[C@H]1O[C@@H](c2ccncc2NC(=O)c2cccn(-c3ccccc3)c2=O)C[C@@H](O)[C@@H]1O` [Example 193, N-(4-((2R,4R,5S,6R)-6-ethyl-4,5-dihydroxytetrahydro-2H-pyran-2-yl)pyridin-3-yl)-2-oxo-1-phenyl-1,2-dihydropyridine-3-carboxamide]: the IC50 is 5850 nM in assay [1], above 25000 nM in assay [2], 7570 nM in assay [3] and above 25000 nM in assay [4]. Besides, the EC50 in assay [5] was above 10000 nM.
In the case of `C[C@H]1[C@H](O)C[C@H](c2ccncc2NC(=O)c2csc(-c3c(F)cccc3F)n2)O[C@@H]1C` (stereo in doubt) [Example 95, 2-(2,6-difluorophenyl)-N-(4-((2R,4R,5S,6R)-4-hydroxy-5,6-dimethyltetrahydro-2H-pyran-2-yl)pyridin-3-yl)thiazole-4-carboxamide], the half-inhibitory concentration (IC50) in assay [1] came to 8 nM; in assay [2] it was 2170 nM; in assay [3], 80 nM; in assay [4] it was 32 nM. Further, the EC50 in assay [5] was above 10000 nM.
The matching figures for `O=C(Nc1cnccc1[C@H]1C[C@@H](O)[C@@]2(O)CCC[C@H]2O1)c1ccnn(-c2ccccc2F)c1=O` [Example 201, N-(4-((2R,4R,4aS,7aR)-4,4a-dihydroxyoctahydrocyclopenta[b]pyran-2-yl)pyridin-3-yl)-2-(2-fluorophenyl)-3-oxo-2,3-dihydropyridazine-4-carboxamide]: 149 nM, 3210 nM, 132 nM, 383 nM and above 10000 nM.
`CC[C@H]1O[C@@H](c2ccncc2NC(=O)c2c[nH]cc(-c3ccccc3)c2=O)C[C@@H](O)[C@@H]1O` [Example 170, N-(4-((2R,4R,5S,6R)-6-ethyl-4,5-dihydroxytetrahydro-2H-pyran-2-yl)pyridin-3-yl)-4-oxo-5-phenyl-1,4-dihydropyridine-3-carboxamide]: the half-maximal inhibitory concentration (IC50) in assay [1] is 1450 nM; in assay [2], 11800 nM; in assay [3], 1320 nM; in assay [4], 3580 nM.
